Results from publication PMC3960075 (ACS chemical biology, 2012).
Entries after “also recorded” stand apart in the source; their conditions may differ.

Key:
[1] = molecular target: T1, PAN endonuclease (influenza virus PA N-terminal domain) (Influenza A virus, UniProt Q5EP34); type: binding
influenza A/PR/8/34 = test: microbe, parasite or virus in culture; type: cell-based, avian H1N1 influenza A virus (A/PuertoRico/8/34); details: for IC50: Influenza A virus, PR/8, MDCK, read-out: IC50, viral plaque inhibition
[2] = molecular target: T1, PAN endonuclease (influenza virus PA N-terminal domain); type: binding; remark: listed apart in the source
immunoglobulin G (IgG) = test: Direct binding FP specificity control with IgG; details: IgG 2-fold serial dilutions from 100 μM, 4 at 60 nM
in vitro = details: dog

Row | Compound | IC50 (influenza A/PR/8/34) [µM] | FP competitive binding, result in words [1] | further results
1 | O=C(O)/C(O)=C/C(=O)C1(Cc2ccc(Cl)cc2)CCN(Cc2ccccc2)CC1 [Compound 2, reference compound] | 3.13 ± 0.08 | – | inhibition (displacement of 4 from PAN) ([1]; 250 µM): 100%
2 | O=C(O)/C(O)=C/C(=O)C1(Cc2ccc(Cl)cc2)CCN(C(=O)c2ccc(-c3c4ccc(=O)cc-4oc4cc(O)ccc34)c(C(=O)O)c2)CC1 [Compound 4] | – | – | dynamic range [2]: 124.3 ± 0.9 mP; Non-specific binding to IgG (immunoglobulin G (IgG)): not observed
3 | O=C(O)/C(O)=C/C(=O)c1cccnc1 [Compound 13] | – | inactive | –
4 | O=C(O)C(=O)C1=C(O)c2ccccc2OC1 [Compound 14] | – | inactive | –
5 | COc1ccc2c(c1)CC(C(=O)C(=O)O)=C2O [Compound 15] | – | inactive | –
6 | COC(=O)/C(O)=C/C(=O)c1ccccc1 [Compound 16, reference compound] | > 100 | inactivity | Inhibition of viral plaque formation, result in words (influenza A/PR/8/34): inactive
7 | CC(C)(C)OC(=O)/C(O)=C/C(=O)c1ccccc1 [Compound 17] | – | inactivity | –
8 | O=C(O)/C=C/C(=O)c1ccccc1 [Compound 18] | – | inactive | –
9 | O=C(O)CCC(=O)c1ccccc1 [Compound 19] | – | no inhibition; also recorded: inactive | –
10 | O=C(O)c1nc(-c2cnccn2)nc(O)c1O [Compound 31] | > 50 | – | –
11 | CC(NC(=O)c1nc(-c2cnccn2)[nH]c(=O)c1O)c1ccccc1 (centres unmarked) [Compound 42] | 14.28 ± 0.07 | – | CC50 (in vitro): > 60 µM
12 | O=C(NCCc1ccccc1)c1nc(-c2cnccn2)[nH]c(=O)c1O [Compound 43] | > 100 | – | Inhibition of viral plaque formation, result in words (influenza A/PR/8/34): inactive
13 | C[C@H](NC(=O)c1nc(-c2cnccn2)[nH]c(=O)c1O)c1ccccc1 [Compound 44] | 18.61 ± 0.09 | – | CC50 (in vitro): > 60 µM
14 | C[C@@H](NC(=O)c1nc(-c2cnccn2)[nH]c(=O)c1O)c1ccccc1 [Compound 45] | 12.68 ± 0.08 | – | CC50 (in vitro): > 60 µM
15 | CCC(CC)O[C@@H]1C=C(C(=O)O)C[C@H](N)[C@H]1NC(C)=O [oseltamivir carboxylate, reference compound] | – | – | inhibition of viral plaque formation (influenza A/PR/8/34): 100%
